Data from EP2703005A1, “Inhibitors of alpha6 Integrin/E-Cadherin Complex” (Università Degli Studi Di Torino, priority 2012, dated 2014).

Key:
DLD-1 [1] = assay: Liver adhesion assay on frozen sections of grossly normal human liver; type: cell-based; conditions: 30 minutes, versus control peptide
Description: (§1) Adhesion, proliferation, and migration assays. All the described in vitro tests were performed at least in triplicate. For investigation of cell adhesion to peptides and proteins, 1 µg of each substrate was incubated per well of a 96 well-plate for 1 hour at 37°C. After a blocking step in IMDM, 2% FCS for 1 hour at 37°C, 10^4 cells were allowed to adhere for 1 hour at 37°C. Samples were washed gently in PBS, and cells were fixed in 8% glutaraldehyde and stained in 0.25% crystal violet in 10% methanol. For tissue adhesion, OCT-frozen grossly normal liver samples were cut into 10 µm sections. Tissues were blocked in IMDM, 2% FCS for 30 minutes at 37°C, followed by incubation with 5x10^4 cells in 5% CO2 at 37°C, for the indicated periods of time. Samples were washed 4 times in the same medium and once in PBS, fixed in 4% para-formaldehyde, and stained with hematoxylin (BioOptica). Adhered cells were counted manually under a light microscope.

HT-29 = assay: as above; type: cell-based; conditions: 30 minutes, versus control peptide
Description: as §1

HCT-116m [2] = assay: as above; type: cell-based; conditions: 30 minutes, versus control peptide
Description: as §1

SW-48 [3] = assay: as above; type: cell-based; conditions: 30 minutes, versus control peptide
Description: as §1

NCI-H630 cells [4] = assay: as above; type: cell-based; conditions: liver sections from 27 patients, 30 minutes, versus control peptide
Description: as §1

HCT-116 cells = assay: as above; type: cell-based; conditions: non-metastatic cells with very low levels of the receptor proteins; 30 minutes
Description: as §1

α6 integrin/E-cadherin = biological target: T1, α6 integrin/E-cadherin (Homo sapiens, UniProt P12830+P23229); assay: Confocal imaging of α6 integrin and E-cadherin in explanted liver tumor tissues; type: in vivo, CD-1 nude mice; conditions: LS-174T liver tumors, cells injected with soluble peptide, 14 days
T1 construct: subjected to immunostaining with anti-α6 integrin and anti-E-cadherin antibodies followed by confocal microscopic imaging; endogenous in cells; host or cells: human CRC cells (LS-174T; also HCT-116m, SW-48, DLD-1, HT-29) xenografted into the liver of CD-1 nude mice
Description: Immunostaining. OCT-frozen tissues were cut in 10 µm sections, paraffin-embedded tissues in 5 µm sections. For immunostaining of cell lines, 10^4 cells were plated on a SuperFrost Plus glass slide (Menzel-Glaser, Braunschweig, Germany) and were grown for 24 hours followed by fixation in 4% paraformaldehyde in PBS for 5 minutes at room temperature. Immunostaining was performed according to standard protocols. Fluorescent images were acquired with either a DMIRE2 confocal microscope or with a DMI 3000D microscope equipped with a DFC 360FX digital camera (all from Leica. Visible images were acquired with either an EC3 Leica (immunostaining of frozen tissues) or a High-Performance IEEE 1394 FireWire Digital CCD Camera (QIMAGING, Surrey, BC, Canada) (immunostaining of paraffin-embedded tissues). For the quantification of specific fluorescent signals, 3 confocal images (1024x1024 pixels, equivalent to 375x375 µm) for each sample, acquired by keeping all the parameters constant, were divided in two 8-bit images corresponding to the red and green fluorescence channels. […]
Animal models of human metastatic CRC. […] Mice were strictly monitored until completely awake, and oral ampicillin was administered for 5 days following the surgery. […] External metastatic areas were quantified using ImageJ software.

LS-174T cells = assay: Hepatic colonization model, intrahepatic injection of CRC cells; type: in vivo, CD-1 nude mice; conditions: 5x10^6 cells/mouse injected with 100 µM soluble peptide, 14 days, versus vehicle
Description: Animal models of human metastatic CRC. Six-week female CD1-nude mice were purchased from Charles River (Lecco, Italy). Animals were subjected to intraperitoneal anaesthesia with a mixture composed by 0.75 mg/ml xylazine (Xilor®, BIO98, Milan, Italy), 1 mg/ml tiletamine - 1mg/ml zolazepam (Zoletil®, Virbac, Milan, Italy), in physiological solution. After the mice were deeply asleep, a midline incision was performed and target organs were gently exposed. Two or five million suspended cells were injected in 50 µl of culture medium intrasplenically (Tibbettset al. 1993. Cancer, 71:315-321) or into the median liver lobe (Grothey, et al. 2009. Nat Rev Clin Oncol, 6:507-518), respectively. To investigate a pharmacological intervention on liver homing and/or colonization of CRC cells, animals were divided in two arms, receiving medium alone (vehicle) or supplemented with 100 µM […] peptide. The wound was closed by a double suture and each animal was given 0.1 mg caprofen (Rymadil®, Pfizer, Milan, Italy) in a physiological solution to allow post-operative pain relief and rehydration. Mice were strictly monitored until completely awake, and oral ampicillin was administered for 5 days following the surgery. […] External metastatic areas were quantified using ImageJ software.

[5] = test system: U293 cells transduced with α6 integrin, E-cadherin or both; assay: Liver adhesion assay on frozen sections of grossly normal human liver; type: cell-based; conditions: 30 minutes, versus control peptide
Source text: (§2) Preparation of cells stably overexpressing the MTS-targeted proteins. The cDNA of FLAG-tagged human angiopoietin-like 6, inserted into pcDNA3.1 (+).Neo vector (pcDNA3.ANGL6), was a gift from Dr. Y. Oike (Japan Science and Technology Agency, Japan (Minn et al., 2007, Proc Natl Acad Sci USA, 104:6740-6745); the cDNA of human E-cadherin, cloned into a pcDNA3.1 (+). Neo vector (pcDNA3.CAD1) was a gift from Dr. C. Gottardi (North Western University Medical School, Chicago, IL (Bos, et al. 2009, Nature 459:1005-1009); the cDNA of β4 integrin, cloned into a PRK5 plasmid (pRK5.ITB4), was purchased from Addgene (Cambridge, MA); the cDNA of human α6A integrin, inserted in pLXSN plasmid (pLα6SN (Kuo et al. 1995, Proc Natl Acad Sci USA, 92:12085-12089), was a gift of Dr. A. Magrelli (La Sapienza University, Rome, Italy). The latter was PCR-amplified with the following primer pair: • 5'-[…]-3' (SEQ ID No 28) and • 5'-[…]-3' (SEQ ID No 29) and subcloned into a pcDNA3.1 (+). Hygro vector between HindIII and ApaI sites to obtain the pcDNA3.ITA6A plasmid. […]
(§3) Adhesion, proliferation, and migration assays. […] Adhered cells were counted manually under a light microscope.

NCI-H630 cells [6] = assay: Cell adhesion to peptides and proteins coated on microwells; type: cell-based, human
Source text: Preparation of cell lines with silenced expression of the MTS-tageted genes. A transient gene silencing approach was applied to cells used exclusively for short-term, in vitro experiments. NCI-H630 cells were transduced with ON-TARGETplus SmartPOOL siRNA for ITGA6 and CDH1, or with control siRNA (Dharmacon, Lafayette, CO). For each experimental point, 2x10^5 cells were reverse-transfected with either control, ITGA6, CDH1, or both siRNA pools, according to the manufacturer's protocol. To quantify the downmodulation of targeted genes, RNA and protein levels were evaluated after 24 and 72 hours, respectively. A stable gene silencing approach was preferred for cells used for long-term, in vivo experiments. For this purpose, 2x10^5 HCT-116m, SW-48, HT-29, or DLD-1 cells were transfected with shRNA plasmid pools targeting ITGA6 (sc-43129-SH) or CDH1 (sc-35242-SH), or with non-targeting control shRNA plasmid pool A (sc-108060) (all from Santa Cruz Biotechnologies), according to the manufacturer's protocol. Following selection in medium supplemented with 2.5 µg/ml puromycin, 6 clones for each experimental point were subjected to dotblot analysis to confirm selective protein down-regulation. […]
as §3

[7] = test system: U293 cells stably overexpressing E-cadherin, α6 integrin or both; assay: Cell proliferation assay (crystal violet); type: cell-based, human; conditions: 100 µM peptide, 10% FCS, versus control peptide
Source text: as §2, with “(+).” for “(+). Hygro vector between HindIII and ApaI sites to obtain the pcDNA3.ITA6A plasmid.”
To test the effects of peptides on cell proliferation, we seeded 2x10^4 cells per well in a 24-well plate, in the presence of either control or […] peptide (100 µM). […] Cell growth was evaluated by absorbance at 590 nm in a microplate reader (Perkin Elmerm Waltham, MA). A calibration curve was set up with known numbers of cells and a linear correlation between absorbance and cell counts was established up to 5x10^5 cells/well.

β4 integrin = biological target: T2, β4 integrin (Homo sapiens, UniProt P16144+P23229); assay: Affinity purification of liver metastasis lysates on column-immobilized peptide, ELISA for integrin subunits; type: binding; conditions: lysates of 7 pooled human liver metastases, versus salt and control peptide fractions
T2 construct: from tissue; host or cells: 7 pooled human liver metastases secondary to CRC
Description: Validation of MTS-phage targets. Binding of single phage clones on whole cells was performed with a 10^9 TU input of each phage on 5x10^5 suspended cells in binding medium as described (Chambers et al. 2002. Nat Rev Cancer, 2:563-572). For overlay binding experiments, 5 x10^9 TU/ml of each phage was incubated with 10 µm tissue sections of OCT-frozen tissues and detected as described , with the EnVision system (DAKO) and 3-amino-9-ethylcarbazole (AEC) as substrate (Arap et al 2002, Nat Med, 8:121-127; Padua et al. 2008, Cell, 133:66-77). Phage overlay images were acquired with an EC3 Leica camera (Leica Microsystems, Milan, Italy). […] Protein amounts in collected fractions were followed by reading their OD at 280 nm, and selected fractions were concentrated by the use of Microcon centrifugal filter devices with cut-off 10,000 (Millipore) to remove residual synthetic peptides. Proteins were quantified with the Coomassie (Bradford) Protein Assay Kit (Pierce), and 500 ng of each sample was evaluated for the presence of specific integrin subunits with a standard ELISA assay. In parallel, the relative amount of targeted proteins was assessed by phage binding as described (66), on 2 µg of each sample and with an input of 10^9 TU of fd-tet or […]-phage. […]

DLD-1 [8] = assay: Liver homing model, intrasplenic implantation; type: in vivo, CD-1 nude mice; conditions: 2x10^6/mouse intrasplenically with 100 µM soluble peptide, versus vehicle; effect stated as not significant in this model
Description: (§4) Animal models of human metastatic CRC. Six-week female CD1-nude mice were purchased from Charles River (Lecco, Italy). Animals were subjected to intraperitoneal anaesthesia with a mixture composed by 0.75 mg/ml xylazine (Xilor®, BIO98, Milan, Italy), 1 mg/ml tiletamine - 1mg/ml zolazepam (Zoletil®, Virbac, Milan, Italy), in physiological solution. After the mice were deeply asleep, a midline incision was performed and target organs were gently exposed. Two or five million suspended cells were injected in 50 µl of culture medium intrasplenically (Tibbettset al. 1993. Cancer, 71:315-321) or into the median liver lobe (Grothey, et al. 2009. Nat Rev Clin Oncol, 6:507-518), respectively. To investigate a pharmacological intervention on liver homing and/or colonization of CRC cells, animals were divided in two arms, receiving medium alone (vehicle) or supplemented with 100 µM […] peptide. The wound was closed by a double suture and each animal was given 0.1 mg caprofen (Rymadil®, Pfizer, Milan, Italy) in a physiological solution to allow post-operative pain relief and rehydration. Mice were strictly monitored until completely awake, and oral ampicillin was administered for 5 days following the surgery. Mice were euthanized at the indicated time points, and organs were photographed with a PL-200 digital photocamera (Samsung Electronics, Milan, Italy). External metastatic areas were quantified using ImageJ software.

HCT-116m [9] = assay: Liver homing model, intrasplenic implantation; type: in vivo, CD-1 nude mice; conditions: 2x10^6/mouse intrasplenically with 100 µM soluble peptide, versus vehicle; 20 days
Description: as §4

SW-48 [10] = assay: Liver homing model, intrasplenic implantation; type: in vivo, CD-1 nude mice; conditions: 2x10^6/mouse intrasplenically with 100 µM soluble peptide, versus vehicle
Description: as §4

LS-174T = assay: Liver homing model, intrasplenic implantation; type: in vivo, CD-1 nude mice; conditions: 2x10^6/mouse intrasplenically with 100 µM soluble peptide, versus vehicle
Description: as §4

HCCM-1544 = assay: Liver homing model, intrasplenic implantation; type: in vivo, CD-1 nude mice; conditions: 2x10^6/mouse intrasplenically with 100 µM soluble peptide, versus vehicle
Description: as §4

T2 sequence (P16144 28-1822): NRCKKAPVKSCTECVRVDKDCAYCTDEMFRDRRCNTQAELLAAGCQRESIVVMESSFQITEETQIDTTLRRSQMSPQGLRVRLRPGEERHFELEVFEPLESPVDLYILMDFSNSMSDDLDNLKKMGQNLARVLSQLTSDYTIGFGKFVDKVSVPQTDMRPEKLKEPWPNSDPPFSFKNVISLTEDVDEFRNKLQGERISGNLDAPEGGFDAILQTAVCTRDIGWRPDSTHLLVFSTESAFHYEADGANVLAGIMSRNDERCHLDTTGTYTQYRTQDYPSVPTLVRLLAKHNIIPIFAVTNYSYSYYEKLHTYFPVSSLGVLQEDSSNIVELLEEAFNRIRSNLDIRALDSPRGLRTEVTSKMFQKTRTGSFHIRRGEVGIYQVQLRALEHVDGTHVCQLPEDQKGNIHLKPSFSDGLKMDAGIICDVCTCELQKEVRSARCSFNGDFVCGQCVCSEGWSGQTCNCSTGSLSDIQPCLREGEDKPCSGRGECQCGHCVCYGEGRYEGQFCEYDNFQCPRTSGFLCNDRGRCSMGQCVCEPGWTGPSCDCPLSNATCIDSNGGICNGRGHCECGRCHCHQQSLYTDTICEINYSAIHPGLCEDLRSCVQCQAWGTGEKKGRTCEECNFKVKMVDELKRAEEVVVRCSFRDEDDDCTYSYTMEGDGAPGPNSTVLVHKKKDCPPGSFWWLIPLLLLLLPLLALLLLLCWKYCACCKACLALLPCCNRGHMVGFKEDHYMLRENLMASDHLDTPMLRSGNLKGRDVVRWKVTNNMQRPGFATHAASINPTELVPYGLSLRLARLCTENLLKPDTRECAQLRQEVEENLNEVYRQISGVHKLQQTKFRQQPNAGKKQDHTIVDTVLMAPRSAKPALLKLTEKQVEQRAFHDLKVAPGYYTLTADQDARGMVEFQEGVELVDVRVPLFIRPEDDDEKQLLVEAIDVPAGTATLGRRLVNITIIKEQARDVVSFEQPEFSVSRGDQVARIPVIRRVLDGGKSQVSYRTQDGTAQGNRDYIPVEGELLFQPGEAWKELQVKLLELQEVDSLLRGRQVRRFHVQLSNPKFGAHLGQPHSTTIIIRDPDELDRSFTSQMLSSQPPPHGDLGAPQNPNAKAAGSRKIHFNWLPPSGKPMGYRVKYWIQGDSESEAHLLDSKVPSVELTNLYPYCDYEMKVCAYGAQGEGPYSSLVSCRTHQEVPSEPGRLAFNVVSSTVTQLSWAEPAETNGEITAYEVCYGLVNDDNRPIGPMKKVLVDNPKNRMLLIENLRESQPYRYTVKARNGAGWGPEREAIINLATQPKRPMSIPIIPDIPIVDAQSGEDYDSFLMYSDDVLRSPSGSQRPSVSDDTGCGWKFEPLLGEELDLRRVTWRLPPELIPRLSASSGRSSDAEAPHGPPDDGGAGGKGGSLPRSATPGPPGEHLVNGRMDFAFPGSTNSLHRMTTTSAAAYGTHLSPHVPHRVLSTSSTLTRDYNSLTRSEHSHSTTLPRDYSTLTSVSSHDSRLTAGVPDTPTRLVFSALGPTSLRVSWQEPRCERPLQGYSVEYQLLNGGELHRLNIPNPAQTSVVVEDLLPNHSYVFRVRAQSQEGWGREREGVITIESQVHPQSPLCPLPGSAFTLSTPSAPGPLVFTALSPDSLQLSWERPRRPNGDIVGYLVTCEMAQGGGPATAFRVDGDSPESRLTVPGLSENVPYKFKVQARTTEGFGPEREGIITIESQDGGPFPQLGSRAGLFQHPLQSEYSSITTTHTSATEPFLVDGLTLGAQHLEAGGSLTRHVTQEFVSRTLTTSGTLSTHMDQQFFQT
T2 sequence (P23229 24-1073 isoform P23229-2 limits assumed): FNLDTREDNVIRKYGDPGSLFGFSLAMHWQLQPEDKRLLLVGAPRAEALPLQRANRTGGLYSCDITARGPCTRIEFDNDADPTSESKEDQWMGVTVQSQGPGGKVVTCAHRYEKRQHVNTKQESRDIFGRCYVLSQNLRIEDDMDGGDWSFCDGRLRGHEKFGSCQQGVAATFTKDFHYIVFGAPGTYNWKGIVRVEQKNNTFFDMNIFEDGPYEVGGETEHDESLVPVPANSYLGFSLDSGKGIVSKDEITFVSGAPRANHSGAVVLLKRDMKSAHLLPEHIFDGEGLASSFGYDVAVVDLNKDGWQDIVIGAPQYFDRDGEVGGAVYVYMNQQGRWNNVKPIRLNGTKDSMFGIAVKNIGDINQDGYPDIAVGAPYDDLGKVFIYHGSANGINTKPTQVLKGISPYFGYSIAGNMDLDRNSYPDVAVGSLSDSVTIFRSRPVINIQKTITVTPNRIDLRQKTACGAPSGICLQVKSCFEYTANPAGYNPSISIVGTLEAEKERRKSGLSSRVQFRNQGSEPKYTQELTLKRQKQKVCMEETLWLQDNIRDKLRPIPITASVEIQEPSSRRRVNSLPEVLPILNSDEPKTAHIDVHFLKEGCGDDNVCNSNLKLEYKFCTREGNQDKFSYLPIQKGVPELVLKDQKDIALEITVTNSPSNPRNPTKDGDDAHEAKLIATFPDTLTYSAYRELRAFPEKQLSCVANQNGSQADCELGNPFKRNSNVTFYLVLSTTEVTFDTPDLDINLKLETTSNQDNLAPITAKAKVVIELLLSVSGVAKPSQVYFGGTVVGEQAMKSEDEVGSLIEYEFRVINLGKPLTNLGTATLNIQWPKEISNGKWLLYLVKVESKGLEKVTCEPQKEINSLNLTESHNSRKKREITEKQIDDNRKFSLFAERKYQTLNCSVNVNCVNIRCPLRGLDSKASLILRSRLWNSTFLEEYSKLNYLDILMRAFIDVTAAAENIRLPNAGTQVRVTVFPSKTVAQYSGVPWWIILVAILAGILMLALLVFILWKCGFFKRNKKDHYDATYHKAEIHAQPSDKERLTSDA
T1 sequence (P23229 24-1073 isoform P23229-2 limits assumed): as above
T1 sequence (P12830 155-882): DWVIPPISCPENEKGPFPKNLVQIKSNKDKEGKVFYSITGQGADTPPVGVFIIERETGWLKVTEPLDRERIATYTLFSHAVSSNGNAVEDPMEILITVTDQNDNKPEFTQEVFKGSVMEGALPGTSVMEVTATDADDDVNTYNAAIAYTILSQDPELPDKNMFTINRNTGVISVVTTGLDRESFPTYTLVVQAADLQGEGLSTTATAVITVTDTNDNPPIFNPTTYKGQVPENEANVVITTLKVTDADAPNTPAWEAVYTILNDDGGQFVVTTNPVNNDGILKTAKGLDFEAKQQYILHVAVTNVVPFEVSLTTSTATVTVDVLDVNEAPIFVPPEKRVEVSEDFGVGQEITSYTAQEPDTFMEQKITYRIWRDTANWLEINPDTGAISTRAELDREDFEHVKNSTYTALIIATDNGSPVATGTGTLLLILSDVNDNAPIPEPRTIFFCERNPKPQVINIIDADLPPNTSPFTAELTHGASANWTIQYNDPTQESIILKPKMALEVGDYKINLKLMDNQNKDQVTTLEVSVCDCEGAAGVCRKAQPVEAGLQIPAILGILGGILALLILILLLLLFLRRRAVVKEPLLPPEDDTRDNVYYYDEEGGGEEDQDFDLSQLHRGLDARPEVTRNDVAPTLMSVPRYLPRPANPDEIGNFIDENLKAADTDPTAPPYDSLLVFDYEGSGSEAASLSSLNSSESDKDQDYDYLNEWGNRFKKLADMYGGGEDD
T1 sequence (P16144 28-1822 partner): as the sequence (P16144 28-1822) above

With “CGIYRLRSC [Targeting synthetic LRS-motif peptide, from New England Peptides]” the “adhesiveness on hepatic tissues” value (DLD-1 [1]) was “significantly inhibited”, the “adhesiveness on hepatic tissues” value (HT-29) was “significantly inhibited” and the “adhesiveness on hepatic tissues” value (HCT-116m [2]) was “significantly inhibited”. For the same sequence, the “adhesiveness on hepatic tissues” value (SW-48 [3]) was “significantly inhibited”, the “cell adhesion to human liver sections” value (NCI-H630 cells [4]) was “significant decrease in cell adhesion” and the “adhesion to normal hepatic tissues” value (HCT-116 cells) was “not influenced”. For the same sequence, the “overall morphology and levels of receptor complex in the tumors” value (α6 integrin/E-cadherin) was “unchanged”, the “liver tumors (external tumor areas)” value (LS-174T cells) was “significant reduction of liver tumors” and the liver adhesion [5] was “inhibited liver adhesion of U293 cells only when they concomitantly expressed α6 integrin and E-cadherin”. The “adherence of cells to microwells coated with the peptide” value (NCI-H630 cells [6]; NCI-H630 cells in which ITGA6 or both mRNAs were silenced, 1 µg substrate per well, 1 hour) was “impaired adherence”, the “adherence of cells to microwells coated with the peptide” value (NCI-H630 cells [6]; NCI-H630 cells with both α6 integrin and E-cadherin downmodulated) was “particularly pronounced” and the proliferation [7] was “no effects”. The “enrichment of integrin subunit in peptide- and phage-targeted protein fractions” value (β4 integrin) was “substantial enrichment in the β4 subunit”, the “homing of CRC cells to the liver (external metastatic areas)” value (shortened to “homing of CRC cells to the liver”) (DLD-1 [8]) was “diminished homing of CRC cells to the liver” and the “homing of CRC cells to the liver” value (HCT-116m [9]) was “diminished homing of CRC cells to the liver, which was significant”. For the same sequence, the “homing of CRC cells to the liver” value (SW-48 [10]) was “diminished homing of CRC cells to the liver, which was significant”, the “homing of CRC cells to the liver” value (LS-174T) was “diminished homing of CRC cells to the liver, which was significant” and the “homing of CRC cells to the liver” value (HCCM-1544) was “diminished homing of CRC cells to the liver, which was significant”.
